One molecule from PMC11224940, “矩阵热转移技术鉴定有机酸类代谢物的结合蛋白质” (Chinese Journal of Chromatography, 2024) can be followed below.

The target in the test is T1, FH (富马酸脱氢酶) (Homo sapiens, UniProt P07954).
T1 construct: endogenous protein in desalted HeLa cell lysate, native, no tag
T1 sequence (P07954 45-510): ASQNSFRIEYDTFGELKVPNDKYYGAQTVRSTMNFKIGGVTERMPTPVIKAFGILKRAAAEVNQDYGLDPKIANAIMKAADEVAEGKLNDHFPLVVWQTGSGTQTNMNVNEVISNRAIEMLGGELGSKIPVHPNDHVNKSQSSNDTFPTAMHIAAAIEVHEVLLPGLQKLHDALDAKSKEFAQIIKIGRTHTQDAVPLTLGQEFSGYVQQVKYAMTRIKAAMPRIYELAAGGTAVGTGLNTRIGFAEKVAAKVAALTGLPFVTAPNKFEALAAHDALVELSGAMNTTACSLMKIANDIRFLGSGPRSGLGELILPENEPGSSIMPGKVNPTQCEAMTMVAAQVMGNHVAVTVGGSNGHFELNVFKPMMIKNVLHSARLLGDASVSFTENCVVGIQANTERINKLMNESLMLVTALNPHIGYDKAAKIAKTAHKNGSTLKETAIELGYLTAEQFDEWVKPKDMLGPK
Put plainly: matrix thermal shift assay (mTSA), DIA proteomics, dose-response fit. In kind it is biochemical. The note with it: desalted HeLa lysate in PBS, endogenous metabolites removed, 50 min room temperature, then 52 ℃ 3 min; 0.004-2 mmol/L ligand; thermal stabilisation; only four ligand concentrations; read-out: 亲和力 (EC50).

Turning to `O=C(O)/C=C/C(=O)O` [富马酸], the 50% effective concentration (EC50) amounted to 548 µM.
